Results taken from the supplement of paper PMC9663587.

Experiments:
[1] = compound: CN(C)C(=O)c1cc2cnc(Nc3ccc(N4CCNCC4)cn3)nc2n1C1CCCC1 [LEE011/Ribociclib]; assay: increase in dead-cell fraction, 72 h; higher = more death;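 further: breast cancer cell lines in 384-well plates, stained with Hoechst plus LIVE/DEAD far red dye and imaged, cells above an LDR intensity threshold counted dead, Hoechst-negative corpses included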
[2] = compound: CN(C)C/C=C/C(=O)Nc1ccc(C(=O)Nc2cccc(Nc3ncc(Cl)c(-c4c[nH]c5ccccc45)n3)c2)cc1 [THZ1]; assay: as above
[3] = compound: CC(=O)c1c(C)c2cnc(Nc3ccc(N4CCN(CCOCCOCCOCCNC(=O)COc5cccc6c5C(=O)N(C5CCC(=O)NC5=O)C6=O)CC4)cn3)nc2n(C2CCCC2)c1=O [BSJ-03-123]; assay: as above
[4] = compound: CN1CC[C@H](c2c(O)cc(O)c3c(=O)cc(-c4ccccc4Cl)oc23)[C@H](O)C1 [Flavopiridol]; assay: as above
[5] = compound: COc1ccc2c(c1)[C@]1(C[C@H]1c1ccc3c(/C=C/c4ccc(CN5C[C@@H](C)O[C@@H](C)C5)cc4)n[nH]c3c1)C(=O)N2
[6] = compound: C[C@@H]1COCCN1c1cc(C2([S@](C)(=N)=O)CC2)nc(-c2cc[nH]c3nccc2-3)n1 [AZD6738]
[7] = compound: CN(C)C/C=C/C(=O)Nc1ccc(O[C@@H]2CCC[C@@H](Nc3ncc(Cl)c(-c4c[nH]c5ccccc45)n3)C2)cc1 [BSJ-01-175]
[8] = compound: CNC(=O)c1cccc(-c2ccc3c(N4CCOC[C@@H]4C)nc(N4CCOC[C@@H]4C)nc3n2)c1 [AZD2014]
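Wherever GR50, 72 h is given: breast cancer and non-malignant breast epithelial cell lines, Deep Dye Drop or Dye Drop imaging, nine half-log doses, GR normalized to time-zero plates and DMSO-only controls.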

Row | Cell Line | increase in dead-cell fraction ([1]; 0.001 µM) | increase in dead-cell fraction ([1]; 0.003162 µM) | increase in dead-cell fraction ([1]; 0.01 µM) | increase in dead-cell fraction ([1]; 0.03162 µM) | increase in dead-cell fraction ([1]; 0.1 µM) | increase in dead-cell fraction ([1]; 0.3162 µM) | increase in dead-cell fraction ([1]; 1 µM) | increase in dead-cell fraction ([1]; 3.162 µM) | increase in dead-cell fraction ([1]; 10 µM) | increase in dead-cell fraction ([2]; 0.0001 µM) | increase in dead-cell fraction ([2]; 0.0003162 µM) | increase in dead-cell fraction ([2]; 0.001 µM) | increase in dead-cell fraction ([2]; 0.003162 µM) | increase in dead-cell fraction ([2]; 0.01 µM) | increase in dead-cell fraction ([2]; 0.03162 µM) | increase in dead-cell fraction ([2]; 0.1 µM) | increase in dead-cell fraction ([2]; 0.3162 µM) | increase in dead-cell fraction ([2]; 1 µM) | increase in dead-cell fraction ([3]; 0.001 µM) | increase in dead-cell fraction ([3]; 0.003162 µM) | increase in dead-cell fraction ([3]; 0.01 µM) | increase in dead-cell fraction ([3]; 0.03162 µM) | increase in dead-cell fraction ([3]; 0.1 µM) | increase in dead-cell fraction ([3]; 0.3162 µM) | increase in dead-cell fraction ([3]; 1 µM) | increase in dead-cell fraction ([3]; 3.162 µM) | increase in dead-cell fraction ([3]; 10 µM) | increase in dead-cell fraction ([4]; 0.0001 µM) | increase in dead-cell fraction ([4]; 0.0003162 µM) | increase in dead-cell fraction ([4]; 0.001 µM) | increase in dead-cell fraction ([4]; 0.003162 µM) | increase in dead-cell fraction ([4]; 0.01 µM) | increase in dead-cell fraction ([4]; 0.03162 µM) | increase in dead-cell fraction ([4]; 0.1 µM) | increase in dead-cell fraction ([4]; 0.3162 µM) | increase in dead-cell fraction ([4]; 1 µM) | GR50, 72 h [5] | GR50, 72 h [6] | GR50, 72 h [7] | GR50, 72 h [8]
1 | MCF10A (GM) | 0.0013 | 0.0004 | 0.002 | 0.0019 | 0.0026 | 0.0035 | 0.0035 | 0.0073 | 0.0229 | -0.0002 | -0.0005 | -0.0015 | 0.0003 | 0.0067 | 0.127 | 0.225 | 0.256 | 0.61 | 0.0019 | -0.0004 | 0.0026 | 0.0037 | 0.0042 | 0.0033 | 0.0209 | 0.0255 | 0.455 | -0.0007 | -0.0019 | -0.0004 | -0.0003 | 0.0027 | 0.0152 | 0.0701 | 0.491 | 0.66 | 0.00625 µM | 6.85 µM | 1.17 µM | 0.034 µM
2 | PDX1206 | -0.0167 | -0.0241 | 0.009 | -0.0043 | -0.0009 | 0.0111 | -0.0007 | 0.0201 | 0.0115 | -0.0189 | 0.0062 | -0.0104 | -0.008 | -0.0089 | 0.0587 | 0.346 | 0.424 | 0.513 | -0.0047 | -0.004 | -0.0083 | -0.0021 | -0.0156 | -0.0027 | -0.0025 | -0.0175 | 0.217 | 0.009 | 0.0115 | 0.0015 | 0.0091 | -0.0105 | 0.0053 | 0.0408 | 0.405 | 0.587 | 0.00708 µM | 4.6 µM | 0.0192 µM | < 0.001 µM
